How the values were obtained:
Assay in all cases: normalised response (% of control), CellTox Green; higher = less cell death (100 = DMSO, 0 = benzethonium chloride kill control)
Conditions in all cases: incubation time: 72 h
BT-474 = system: BT-474
How it was run: (§1)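 Each entry is the normalised signal at a single concentration within a series. The series comprised 5 concentrations in 10-fold steps over a compound-specific 10,000-fold range, placed in 384-well plates into which breast cancer cell lines were seeded as 20 µl suspension and incubated 72 h. CellTox Green (485/520 nm) fluorescence and then CellTiter-Glo luminescence were read, with signals normalised per plate to 0.1 % DMSO (100) and a positive kill control (0).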

BT-549 = system: BT-549
How it was run: as §1

CAL-120 = system: CAL-120
How it was run: as §1

CAL-148 = system: CAL-148
How it was run: as §1

CAL-51 = system: CAL-51
How it was run: as §1

CAL-85-1 = system: CAL-85-1
How it was run: as §1

DU-4475 = system: DU-4475
How it was run: as §1

HCC1143 = system: HCC1143
How it was run: as §1

HCC1599 = system: HCC1599
How it was run: as §1

HCC1937 = system: HCC1937
How it was run: as §1

Hs578T = system: Hs578T
How it was run: as §1

MCF-10A = system: MCF-10A
How it was run: as §1

MDA-MB-231 = system: MDA-MB-231
How it was run: as §1

MDA-MB-436 = system: MDA-MB-436
How it was run: as §1

MDA-MB-453 = system: MDA-MB-453
How it was run: as §1

MFM-223 = system: MFM-223
How it was run: as §1

MDA-MB-468 = system: MDA-MB-468
How it was run: as §1

HDQ-P1 = system: HDQ-P1
How it was run: as §1

Structure (SMILES) | normalised response (BT-474) | normalised response (BT-549) | normalised response (CAL-120) | normalised response (CAL-148) | normalised response (CAL-51) | normalised response (CAL-85-1) | normalised response (DU-4475) | normalised response (HCC1143) | normalised response (HCC1599) | normalised response (HCC1937) | normalised response (Hs578T) | normalised response (MCF-10A) | normalised response (MDA-MB-231) | normalised response (MDA-MB-436) | normalised response (MDA-MB-453) | normalised response (MFM-223) | normalised response (MDA-MB-468) | normalised response (HDQ-P1)
CS(=O)(=O)OCCCCOS(C)(=O)=O [Busulfan] (100000 nM) | 100% | 110% | 101% | 81.5% | 106% | 77.6% | 97.4% | 94.9% | 108% | 105% | 123% | 95.5% | 99.8% | 95.6% | 97.6% | 84.1% |  | 
COc1cccc2c1C(=O)c1c(O)c3c(c(O)c1C2=O)C[C@@](O)(C(C)=O)C[C@@H]3O[C@H]1C[C@H](N)[C@H](O)[C@H](C)O1 [Daunorubicin] (100 nM) | 99.5% | 124% | 105% | -17.1% | 73.5% | 102% | 100% | 75.9% | 102% |  | 90.7% | 106% | 104% | 98.2% | 110% | 99.6% | 96.9% | 
CN1CCN(c2ccc3nc(-c4c(N)c5c(F)cccc5[nH]c4=O)[nH]c3c2)CC1 [Dovitinib] (10000 nM) | 99.9% | 121% | 101% | 92.4% | 118% | 86.8% | 101% | 111% | 104% | 97.9% |  | 99.3% |  | 108% | 103% | 99.1% | 126% | 108%
O=c1[nH]cc(F)c(=O)[nH]1 [Fluorouracil] (10000 nM) | 105% | 95.8% | 105% | 92.9% | 120% | 75% | 99.2% | 103% | 95.2% | 104% | 118% | 75.7% | 105% | 75.7% | 100% | 103% | -57.8% | 
CS(=O)(=O)CCNCc1ccc(-c2ccc3ncnc(Nc4ccc(OCc5cccc(F)c5)c(Cl)c4)c3c2)o1 [Lapatinib] (1000 nM) | 76.4% | 93.4% | 99.2% | 64.5% | 106% | 59.3% | 100% | 99% | 107% |  |  | 26.9% |  | 98.7% | 82.5% | 104% | 84.8% | 96.8%
COC1=CC(c2cc3ccccc3[nH]2)=N/C1=C\c1[nH]c(C)cc1C [Obatoclax] (1000 nM) | 97.3% | 113% | 90.5% | 105% | 100% | 101% | 98.1% | 105% | 100% | -5.92% | 107% | 70.1% | 64.3% | 91.5% | 105% | 102% | 107% | 

From the supplement of paper PMC4862054
